Results reported in US20130267594A1, “PROLYL HYDROXYLASE INHIBITORS AS RADIATION MITIGATORS AND RADIATION PROTECTORS” (priority 2010, published 2013).

Assays:
H3K9me3 = assay: Western blot of H3K9me3 in Suv39h1/2−/− MEFs (FIG. 4A); format: cell-based, mouse; conditions: Suv39h1/2−/− cells, DMOG 100 μM/2hours
Procedure: Cell lysates and Western blot analysis: Antibodies used: mHif1α (Santa Cruz Biotechnology, CA); hHIF1α (Abcam, CA); H3K9me3 (Millipore, N.Y.); β-actin (Cell Signaling Technology, Mass.); CHD4 and MTA3 (Bethyl Laboratories, Tex.); Suv39h1 (Novus, CA). To prepare nuclear lysates, cells were resuspended in 500 μl buffer A (10 mM Tris, pH8.0/1 mM EDTA, pH8.0/150 mM NaCl/0.5% NP-40/1 mM PMSF/5 μg/ml leupeptin/20 μg/ml aprotinin), incubated on ice for 15 min and centrifuged at 500 g for 5 min at 4° C. Supernatant was removed and the pellet resuspended in buffer B (20 mM Hepes, pH7.9/400 mM NaCl/1 mM EDTA/0.5 mM DTT/1 mM PMSF/5 μg/ml leupeptin/20 μg/ml aprotinin), incubated on ice for 15 min and cleared by centrifugation (21,000 g for 5 min at 4° C.). For western blots, equal amounts of protein (Bradford Protein Assay kit, Bio-Rad Laboratories, CA) were separated by electrophoresis and transferred to nitrocellulose membranes (Bio-Rad Laboratories, CA). Membranes were blocked with Odyssey Blocking Buffer (Li-Cor, NB), incubated with primary antibodies for 3 h, and washed in PBST (PBS and 0.1% Tween-20) followed by goat anti-mouse IR Dye-800CW or goat anti-rabbit IR Dye-680CW secondary antibodies (Li-Cor, NB). Imaging was performed using the Li-Cor Odyssey Near Infra Red System, and analyzed using the Odyssey software system 3.0 package (Li-Cor, NB).

[1] = Toxicity of DMOG alone in mice; format: in vivo, mouse; conditions: DMOG 100 mg/kg ip
Procedure: Mice: This study was carried out in strict accordance with the recommendations in the Guide for the Care and Use of Laboratory Animals of the National Institutes of Health. The protocol was reviewed and approved by the Dana-Farber Cancer Institute's Animal Care and Use Committee (Protocol number 06-029). All efforts were made to minimize suffering. Male Balb/c mice were purchased from Taconic (NY, USA) and C57BL/6J mice were purchased from The Jackson Laboratory (ME, USA). For total body irradiation (TBI), mice were irradiated at the dose rate of 110 cGy/min using a ^137Cs source (Gammacell® 40Exactor, Best Theratronics, Ottawa, Canada). DMOG (dissolved in saline) or saline was administered IP before and after TBI. The mice were given normal water that had undergone reverse osmosis and powdered food (Purina Pico Lab Chow) after TBI. The animals were closely inspected after TBI for ill-health and the moribund animals were sacrificed according to the guidelines in our approved ACUC protocol. The Kaplan-Meier survival curves were plotted for saline-treated and DMOG-treated cohorts. The statistical analysis of the Kaplan-Meier survival curves was performed with Graph Pad Prism Version 5 using Mantel Log-rank test.
The preliminary observation on the radiation mitigating effects of DMOG in primary fibroblast cell lines prompted the inventors to initiate testing of DMOG in a murine model. […]

## COC(=O)CNC(=O)C(=O)OC [DMOG, dimethyloxalylglycine]
H3K9me3
  levels of H3K9me3 (Western blot): increased the levels of H3K9me3 in Suv39h1/2−/− cells to a level similar to those seen in Suv39h1/1+/+ cells
[1]; no irradiation
  toxicity of DMOG alone in mice: does not cause any toxicity
[1]; no irradiation (data not shown)
  mice surviving at 30 days, DMOG alone: 100%
